For assay [1], the system named is E. coli C93 BLEE+. In words: Agar diffusion antibiogram (Example 2). It counts as cell-based, Escherichia coli. The note with it: concentration 50 μg/ml. As for the experimental part:
(§1) From the stock cultures, which were maintained at −80±5° C., revitalization of the strains (TSB, TSA and blood agar cultures, incubation at 37° C., 24 h) and preparation of working cultures (maintenance at 5° C.±3° C.) was carried out.
(§2) The study of microbial activity of the products was performed by the agar diffusion method (antibiograms). Preliminary experiments were performed to adjust the concentration of each strain to obtain a homogeneous field, and the appropriate culture medium (in this case, Mueller Hinton agar) was selected. Whenever possible, large Petri plates (diameter of 135 mm) were used, but when the halo was too large, several plates of 90 mm diameter were used to test all the products. […] Addition of 1-2 ml of the corresponding dilution to sterile Petri plates (depending on size) and then pouring Mueller Hinton agar, tempered to 45° C. Allowing the agar to solidify at room temperature and then practicing wells in which the products will be placed to be tested. • Preparing the test substances in the appropriate concentration (suspension of 1 mg/ml in sterile water and serial dilutions). Placing 50 μl of the chosen concentration in each well (a previous study was done to see which concentration provided the most appropriate halos in each strain). As a positive control Penicillin G (at the same concentration) was used. • Incubation of the plates at 3±1° C. for 24 hours. Then the inhibition halos observed in each well were measured and gathered in Table 4 below.
A general note: Agar diffusion results depend on both activity and mobility in agar.

Assay [2] concerns E. coli H24 BLEE+. In words: Agar diffusion antibiogram (Example 2). In kind it is cell-based, Escherichia coli. To be noted: concentration 50 μg/ml. As to the method:
as §1, §2

Assay [3] relates to E. coli W207 BLEE+. Put plainly: Agar diffusion antibiogram (Example 2). It counts as cell-based, Escherichia coli. To be noted: concentration 50 μg/ml. As to the method:
as §1, §2

In assay [4] the test system is E. coli AC8 BLEE+. Put plainly: Agar diffusion antibiogram (Example 2). In kind it is cell-based, Escherichia coli. To be noted: concentration 50 μg/ml. As to the method: as §1, §2
The test system of assay [5] is Ps. aeruginosa PAO1. Put plainly: Agar diffusion antibiogram (Example 2). It counts as cell-based, Pseudomonas aeruginosa. The note with it: concentration 50 μg/ml. As to the method:
as §1, §2

The test system of assay [6] is Ps. aeruginosa OPRD. In words: Agar diffusion antibiogram (Example 2). In kind it is cell-based, Pseudomonas aeruginosa. To be noted: concentration 50 μg/ml. As to the method: as §1, §2
Assay [7] has as its system Ps. aeruginosa DACB. In words: Agar diffusion antibiogram (Example 2). In kind it is cell-based, Pseudomonas aeruginosa. To be noted: concentration 50 μg/ml. As for the experimental part:
as §1, §2

Assay [8] has as its system Ps. aeruginosa MEXR. Put plainly: Agar diffusion antibiogram (Example 2). It counts as cell-based, Pseudomonas aeruginosa. To be noted: concentration 50 μg/ml. As for the experimental part: as §1, §2
The subject of assay [9] is Ps. aeruginosa VIM2. In words: Agar diffusion antibiogram (Example 2). It counts as cell-based, Pseudomonas aeruginosa. To be noted: concentration 50 μg/ml. As for the experimental part:
as §1, §2

Assay [10] concerns C. freundii H44 BLEE+. In words: Agar diffusion antibiogram (Example 2). It counts as cell-based, Citrobacter freundii. To be noted: concentration 50 μg/ml. As for the experimental part: as §1
as §2, with “As a positive control Penicillin G (at the same concentration) was used. • Incubation of the plates at 3±1° C. for 24 hours.” left out

In assay [11] the test system is Ps. aeruginosa PAO1. Put plainly: Agar diffusion antibiogram (Example 1). It counts as cell-based, Pseudomonas aeruginosa. The note with it: by order of Table 1 Ps. aeruginosa PAO1; concentration 50 μg/ml. As to the method: as §1
(§3) The study of microbial activity of the products was performed by the agar diffusion method (antibiograms). Preliminary experiments were performed to adjust the concentration of each strain to obtain a homogeneous field, and select the appropriate culture medium (in this case, Mueller Hinton agar). Whenever possible, large Petri plates (135 mm diameter) were used, but when the halo was too large, several plates of 90 mm diameter were used to test all the products. […] Addition of 1-2 ml of the corresponding dilution to sterile Petri plates (depending on size) and then pouring Mueller Hinton agar, tempered to 45° C. Allowing the agar to solidify at room temperature and then practicing wells in which the products to be tested will be placed. • Preparing the test substances in the appropriate concentration (suspension of 1 mg/ml in sterile water and serial dilutions). Placing 50 μl of the chosen concentration in each well (a previous study was done to determine which concentration provided the most appropriate halos in each strain). As a positive control, Penicillin G (at the same concentration) was used. • Incubation of the plates at 37±1° C. for 24 hours. Then the inhibition halos observed in each well were measured and gathered in Table 2 below.

The subject of assay [12] is Ps. aeruginosa OPRD. Put plainly: Agar diffusion antibiogram (Example 1). To be noted: by order of Table 1 Ps. aeruginosa OPRD; concentration 50 μg/ml. In kind it is cell-based, Pseudomonas aeruginosa. As for the experimental part:
as §1, §3

Assay [13] deals with Ps. aeruginosa MEXR. Put plainly: Agar diffusion antibiogram (Example 1). In kind it is cell-based, Pseudomonas aeruginosa. The note with it: by order of Table 1 Ps. aeruginosa MEXR; concentration 50 μg/ml. As for the experimental part:
as §1, §3

Assay [14] deals with Ps. aeruginosa VIM2. Put plainly: Agar diffusion antibiogram (Example 1). It counts as cell-based, Pseudomonas aeruginosa. To be noted: by order of Table 1 Ps. aeruginosa VIM2; concentration 50 μg/ml. As for the experimental part:
as §1, §3

Assay [15] deals with K. pneumoniae ATCC 700603. In words: Agar diffusion antibiogram (Example 1). In kind it is cell-based, Klebsiella pneumoniae. The note with it: by order of Table 1 K. pneumoniae ATCC 700603; concentration 200 μg/ml. As to the method:
as §1
as §3, with “As a positive control, Penicillin G (at the same concentration) was used. • Incubation of the plates at 37±1° C. for 24 hours.” left out

Assay [16] relates to K. pneumoniae (BLEE+). In words: Agar diffusion antibiogram (Example 1). It counts as cell-based, Klebsiella pneumoniae. The note with it: by order of Table 1 K. pneumoniae BLEE+ clinical isolate; concentration 200 μg/ml. As to the method: as §1
as §3, with “As a positive control, Penicillin G (at the same concentration) was used. • Incubation of the plates at 37±1° C. for 24 hours.” left out

Assay [17] relates to E. coli C93 BLEE+. In words: Agar diffusion antibiogram (Example 1). It counts as cell-based, Escherichia coli. The note with it: by order of Table 1 E. coli C93 BLEE+; concentration 50 μg/ml. As for the experimental part:
as §1, §3

The test system of assay [18] is E. coli H24 BLEE+. In words: Agar diffusion antibiogram (Example 1). It counts as cell-based, Escherichia coli. The note with it: by order of Table 1 E. coli H24 BLEE+; concentration 50 μg/ml. As for the experimental part:
as §1, §3

In assay [19] the test system is E. coli W207 BLEE+. Put plainly: Agar diffusion antibiogram (Example 1). It counts as cell-based, Escherichia coli. The note with it: by order of Table 1 E. coli W207 BLEE+; concentration 50 μg/ml. As to the method: as §1, §3
The subject of assay [20] is E. coli ATCC 8739. Put plainly: Agar diffusion antibiogram (Example 1). In kind it is cell-based, Escherichia coli. The note with it: concentration 50 μg/ml. As for the experimental part: as §1, §3
The test system of assay [21] is E. coli not BLEE. Put plainly: Agar diffusion antibiogram (Example 1). In kind it is cell-based, Escherichia coli. The note with it: concentration 50 μg/ml. As to the method: as §1, §3
The subject of assay [22] is K. pneumoniae ATCC 700603. In words: Agar diffusion antibiogram (Example 2). In kind it is cell-based, Klebsiella pneumoniae. To be noted: concentration 200 μg/ml. As for the experimental part:
as §1
as §2, with “As a positive control Penicillin G (at the same concentration) was used. • Incubation of the plates at 3±1° C. for 24 hours.” left out

Assay [23] has as its system K. pneumoniae BLEE+. Put plainly: Agar diffusion antibiogram (Example 2). The note with it: concentration 200 μg/ml. In kind it is cell-based, Klebsiella pneumoniae. As to the method: as §1
as §2, with “As a positive control Penicillin G (at the same concentration) was used. • Incubation of the plates at 3±1° C. for 24 hours.” left out

Assay [24] relates to C. freundii H44 BLEE+. In words: Agar diffusion antibiogram (Example 1). It counts as cell-based, Citrobacter freundii. To be noted: by order of Table 1 C. freundii H44 BLEE+; concentration 50 μg/ml. As for the experimental part: as §1
as §3, with “As a positive control, Penicillin G (at the same concentration) was used. • Incubation of the plates at 37±1° C. for 24 hours.” left out

Bounds are passed on as bounds.

As for `CC1(C)S[C@@H]2[C@H](NC(=O)Cc3ccccc3)C(=O)N2[C@H]1C(=O)O` [PG, penicillin G], the Inhibition halos in [1], in [2], in [3], in [4], in assay [5] and in assay [6] was less than 1 mm throughout. Also, the Inhibition halos in assay [7] is recorded as 9 mm; in assay [8], less than 1 mm; in assay [9], less than 1 mm; in assay [10], less than 1 mm; in [11] it was less than 1 mm; in assay [12], less than 1 mm. Also, the Inhibition halos in [13], in assay [14], in assay [15], in [16], in assay [17] and in [18] was less than 1 mm in each case. For the same compound, the Inhibition halos in assay [19] is given as less than 1 mm; in [20] it was 21 mm; in assay [21] it was 21 mm; in assay [22], less than 1 mm; in [23] it was less than 1 mm; in assay [24] it was less than 1 mm.
